Test results from patent US5973114A, “Isolation and characterization of the growth hormone releasing hormone receptor” (priority 1992, dated 1999).
Entries after “also recorded” stand apart in the source; their conditions may differ. Each block holds one compound with its values, some of them ahead of it.

Experiments:
[1] = molecular target: T1, secretin and VIP receptors (Homo sapiens, UniProt P47872); conditions: 10 μM; human pancreas; cited from earlier work
T1 construct: host or cells: human pancreas

GHRH receptor (GHRH-R) = experiment: 125I-GHRHa binding assay in crude ovine pituitary membrane pellets; conditions: for competition for the 125I-GHRHa binding site: 100 nM competitor; for displacement of photoprobe binding to membrane pellets: both photoprobes
Method: Specific binding is defined as the difference in the binding seen with 20 pM iodinated analog alone and binding of the analog in the presence of 10 nM non-iodinated GHRHa.
All steps were performed at 4° C. Frozen ovine or bovine anterior pituitaries (ovine: approximately 1 gm/pituitary obtained from Dr. Iain Clarke, Melbourne, Australia; bovine: approximately 2.5 gm/pituitary special handling from Pel-Freez, of Rogers, Ak.) were washed of blood, cleaned of connective tissue and homogenized (using a Dounce homogenizer) in 50 mM HEPES buffer, 100 mM NaCl, 10 mM EDTA, 0.1 μM EGTA, pH 7.4 with 0.5 mM PMSF (phenyl methyl sulfonyl fluoride), 10 μg/ml leupeptin, 10 μg/ml pepstatin A, and 200 U/ml (units/ml) aprotinin. This buffer is used to remove endogenous GTP which might be bound to G proteins and to restore high affinity binding. The homogenate was spun at top speed in a microfuge and the supernatant discarded. The upper (membrane) layer of the pellet was then gently resuspended in binding buffer containing 50 mM Tris buffer, 5 mM EGTA, 5 mM MgCl2, 50 μg/ml alamethicin, 30 μg/ml bacitracin and other protease inhibitors as above.
1/50 pituitary equivalent per tube was incubated in binding buffer with approximately 100,000 counts of iodinated probe in a volume of 500 μl at room temperature for 1 hour. The total counts delivered and the percent of counts bound for each tube was determined with 3 to 6 replicates per experimental condition. Saturation binding profiles were analyzed with the computer program Ligand which performs a statistically weighted least squares fit to the exact ligand binding equation in nontransformed coordinates.

GHRH-R (55 kDa band) = experiment: photoaffinity cross-linking of the 55 kDa GHRH-R band, SDS-PAGE autoradiography; assay type: binding, ovine; conditions: 125I-GHRHa-ANB-NOS probe
Method: Photoprobe binding in ovine pituitary membrane pellets was determined by γ-counting and UV induced cross-linking was examined by autoradiagraphy of sodium dodecylsulfate polyacrylamide electrophoresis (SDS-PAGE) gels. ^125 I-GHRHa -ANB-NOS probe bound with an affinity of about one nanomole, nM (compared to about 160 picomole, pM, for GHRHa).
Photoprobe binding to membranes was evaluated with crude membrane binding assay and then analyzed further by SDS-PAGE electrophoresis to identify the binding sites. Photoprobes were incubated in the dark, photolysed for 10 minutes with a long wave (366 nm) UV lamp, and then the samples were pelleted. The pellets were counted and then extracted by boiling directly in SDS sample buffer (total SDS extracts). Alternatively, the labeled pellets were extracted in a mild detergent solution (5 mM CHAPS) centrifuged, and the chloroform/methanol concentrated supernatants denatured with SDS buffer (CHAPS extracts). These samples were then electrophoresed in SDS gels and autoradiographed.

T1 sequence (P47872 23-440): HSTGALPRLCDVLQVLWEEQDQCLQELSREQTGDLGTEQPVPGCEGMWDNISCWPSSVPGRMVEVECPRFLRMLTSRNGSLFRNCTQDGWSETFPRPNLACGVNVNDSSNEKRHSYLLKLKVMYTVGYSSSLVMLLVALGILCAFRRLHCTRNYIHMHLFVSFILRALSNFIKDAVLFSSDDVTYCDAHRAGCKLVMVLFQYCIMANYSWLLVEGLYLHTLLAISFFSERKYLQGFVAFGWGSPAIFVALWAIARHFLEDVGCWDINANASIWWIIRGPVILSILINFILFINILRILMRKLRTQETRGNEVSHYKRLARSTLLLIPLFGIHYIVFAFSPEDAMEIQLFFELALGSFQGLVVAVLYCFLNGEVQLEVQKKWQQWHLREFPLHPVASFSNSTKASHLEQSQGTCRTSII

Compound: vasoactive intestinal peptide [VIP]
inhibition of 125I-secretin binding [1]: 20%
competition for the 125I-GHRHa binding site (GHRH receptor (GHRH-R)): did not compete; also recorded: no competition
effect on the 55 kDa cross-linked band (GHRH-R (55 kDa band); 100 nM VIP): unaffected

displacement of photoprobe binding to membrane pellets (GHRH receptor (GHRH-R); 50 μM GTPγS): partially displaced
Compound: Nc1nc2c(ncn2[C@@H]2O[C@H](COP(=O)(O)OP(=O)(O)OP(O)(O)=S)[C@@H](O)[C@H]2O)c(=O)[nH]1 [GTPγS]
reduction of the 55 kDa cross-linked band (GHRH-R (55 kDa band); 50 μM GTPγS): over 50%

Compound: GHRH(1-29)-NH2
inhibition of 125I-secretin binding [1]: 20%

effect on specific binding in the GHRH assay (GHRH receptor (GHRH-R); preincubation with 1 mM DTT): completely eliminated
Compound: O[C@H](CS)[C@H](O)CS (racemic) [DTT, dithiothreitol]

displacement of photoprobe binding to membrane pellets (GHRH receptor (GHRH-R); 10 nM GHRHa): totally displaced
Kd (GHRH receptor (GHRH-R); crude ovine pituitary membrane pellets, program Ligand, read-out: Kd, saturation binding to a single high affinity site): ~0.16 nM
Compound: [His^1, Nle^27 ]-GHRH-(1-32)-NH2 [GHRHa]
effect on the 55 kDa cross-linked band (GHRH-R (55 kDa band); 10 nM GHRHa): completely eliminated

Compound: pituitary adenylate cyclase activating peptide [PACAP]
competition for the 125I-GHRHa binding site (GHRH receptor (GHRH-R)): did not compete; also recorded: no competition
